Consider three compounds from US6331546A, “Use of 2-amino-3,4-dihydroquinazolines for the production of a medicament for the treatment or prophylaxis of illnesses caused by ischemic conditions” (Aventis Pharma Deutschland GmbH, priority 1999, dated 2001).

Where a name gives a salt, the structure may show the parent alone.

The target in the test is T1, Na+/H+ exchanger of rabbit erythrocytes (Oryctolagus cuniculus, UniProt P23791).
T1 construct: endogenous in cells; host or cells: erythrocytes in fresh heparinised blood of White New Zealand rabbits (Ivanovas)
T1 sequence (P23791 whole entry): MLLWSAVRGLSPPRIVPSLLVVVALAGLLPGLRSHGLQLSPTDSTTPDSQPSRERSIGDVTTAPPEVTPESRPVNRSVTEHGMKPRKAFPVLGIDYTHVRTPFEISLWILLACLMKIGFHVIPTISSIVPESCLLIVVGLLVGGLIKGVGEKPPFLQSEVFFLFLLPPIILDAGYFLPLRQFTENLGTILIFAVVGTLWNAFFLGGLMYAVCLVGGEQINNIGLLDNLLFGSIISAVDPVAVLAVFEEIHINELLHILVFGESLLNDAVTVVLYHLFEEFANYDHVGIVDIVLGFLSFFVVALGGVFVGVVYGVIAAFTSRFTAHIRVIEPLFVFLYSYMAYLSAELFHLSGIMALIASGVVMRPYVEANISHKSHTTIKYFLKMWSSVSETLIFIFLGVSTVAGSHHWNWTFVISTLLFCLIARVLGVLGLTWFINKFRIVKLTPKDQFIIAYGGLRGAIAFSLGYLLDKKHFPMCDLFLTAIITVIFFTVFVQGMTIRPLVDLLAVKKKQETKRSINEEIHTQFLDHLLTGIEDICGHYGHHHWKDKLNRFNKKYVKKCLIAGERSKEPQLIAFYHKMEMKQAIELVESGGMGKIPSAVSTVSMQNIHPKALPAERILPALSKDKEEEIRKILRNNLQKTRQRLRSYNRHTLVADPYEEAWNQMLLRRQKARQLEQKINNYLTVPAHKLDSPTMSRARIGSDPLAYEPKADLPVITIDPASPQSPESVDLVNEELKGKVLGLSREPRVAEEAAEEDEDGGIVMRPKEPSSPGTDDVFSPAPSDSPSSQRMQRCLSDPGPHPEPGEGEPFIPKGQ
As to the kind of experiment: Inhibition of the Na+/H+ exchanger of rabbit erythrocytes (amiloride-sensitive sodium influx, flame photometry). It is filed as cell-based. The note with it: hyperosmolar salt/sucrose medium, pH 7.4, 37° C. The source says:
Inhibition of the Na^+ /H^+ Exchanger of Rabbit Erythrocytes White New Zealand rabbits (Ivanovas) received a standard diet with 2% cholesterol for six weeks in order to activate the Na^+ /H^+ exchange and thus to be able to determine the Na^+ influx into the erythrocytes via Na^+ /H^+ exchange by flame photometry. The blood was removed from the auricular arteries and rendered uncoagulable by means of 25 IU of potassium heparin. A part of each sample was used for the duplicate determination of the hematocrit by centrifugation. Aliquots of 100 μl in each case served for the measurement of the Na^+ starting content of the erythrocytes. In order to determine the amiloride-sensitive sodium influx, 100 μl of each blood sample in 5 ml in each case of a hyperosmolar salt/sucrose medium (mmol/I: 140 NaCl, 3 KCl, 150 sucrose, 0.1 ouabain, 20 tris-hydroxymethyl-aminomethane) were incubated at pH 7.4 and 37° C. The erythrocytes were then washed three times with ice-cold MgCl^2 /ouabain solution (mmol/I: 112 MgCl2, 0.1 ouabain) and hemolyzed in 2.0 ml of distilled water. The intracellular sodium content was determined by flame photometry. The Na^+ net influx was calculated from the difference between sodium starting values and the sodium content of the erythrocytes after incubation. The amiloride-inhibitable sodium influx followed from the difference in the sodium content of the erythrocytes after incubation with and without amiloride 3×10^-4 mol/I. The procedure was the same in the case of the compounds according to the invention.
As usually defined, the IC50 is the concentration that gives 50% inhibition. Regarding `COc1ccc(C2NC(N)=Nc3ccccc32)cc1OC` (stereo not drawn) [Example 2, 2-Amino-4-(3,4-dimethoxyphenyl)-3,4-dihydroquinazolinium Fumarate], the IC50 was 3.2 µM.

`COc1ccc(C2NC(N)=Nc3ccccc32)cc1` (stereo not drawn) [Example 1, 2-Amino-4-(4-methoxyphenyl)-3,4-dihydroquinazoline Hydrochloride]: the IC50 came to 3.4 µM.

With `COc1ccc(C2c3ccccc3N=C(N)N2C)cc1OC` (stereo not drawn) [Example 3, 2-Amino4-(3,4-dimethoxyphenyl)-3-methyl-3,4-dihydro-quinazolinium Fumarate], the IC50 stood at 4.1 µM.
